Consider one compound from patent US7135336B1, “Use of Xenopus laevis oocytes a microincubators” (University of South Florida, priority 2004, dated 2006).

In the assay the target is T1, human α4/β2 nicotinic receptors (Homo sapiens, UniProt P17787+P43681).
T1 construct: expressed in transfected cells; host or cells: Xenopus laevis oocytes injected with α4/β2 RNA (BMSC-injected and non-injected control oocytes)
The experiment in a line: Two electrode voltage clamp recordings of acetylcholine chloride concentration response in Xenopus laevis oocytes expressing human α4/β2 nicotinic receptors. It is filed as cell-based. How it is done: Electrophysiological Recordings. The last set of experiments was designed to investigate survival and lifespan differences between frog oocytes injected with BMSC and non-injected oocytes. Both groups were carefully maintained under the same conditions for a prolonged period of time. […] Whole cell currents were measured at room temperature, 48 hours after RNA injection.
Finally, the last set of experiments was devoted to the study of the longevity of recipient oocytes with control test for their functional activity in the form of ability of oocytes to express α4/β2 subunits of human nicotinic receptors in their membranes 48h after RNA injection.
(Two-electrode voltage clamp holds a large cell at a set potential and records current.)

Where [1] appears, read: BMSC injected 44 day old oocytes.

T1 sequence (P43681 29-627 limits assumed): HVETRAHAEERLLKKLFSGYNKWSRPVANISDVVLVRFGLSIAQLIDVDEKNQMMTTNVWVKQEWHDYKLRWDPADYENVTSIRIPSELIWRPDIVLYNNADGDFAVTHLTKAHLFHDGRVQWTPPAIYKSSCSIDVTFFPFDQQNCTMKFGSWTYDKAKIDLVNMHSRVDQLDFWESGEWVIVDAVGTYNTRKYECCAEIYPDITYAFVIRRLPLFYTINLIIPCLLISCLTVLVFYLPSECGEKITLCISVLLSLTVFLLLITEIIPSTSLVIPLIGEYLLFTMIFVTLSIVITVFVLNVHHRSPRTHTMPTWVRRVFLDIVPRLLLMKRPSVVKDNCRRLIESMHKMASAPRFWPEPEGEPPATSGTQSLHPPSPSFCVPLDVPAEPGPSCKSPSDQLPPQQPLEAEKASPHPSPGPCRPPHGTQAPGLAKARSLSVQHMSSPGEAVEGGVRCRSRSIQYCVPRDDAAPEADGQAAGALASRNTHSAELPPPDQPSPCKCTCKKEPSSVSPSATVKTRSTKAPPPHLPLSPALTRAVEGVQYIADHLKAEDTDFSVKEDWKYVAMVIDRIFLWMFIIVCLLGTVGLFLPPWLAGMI
T1 sequence (P17787 26-502): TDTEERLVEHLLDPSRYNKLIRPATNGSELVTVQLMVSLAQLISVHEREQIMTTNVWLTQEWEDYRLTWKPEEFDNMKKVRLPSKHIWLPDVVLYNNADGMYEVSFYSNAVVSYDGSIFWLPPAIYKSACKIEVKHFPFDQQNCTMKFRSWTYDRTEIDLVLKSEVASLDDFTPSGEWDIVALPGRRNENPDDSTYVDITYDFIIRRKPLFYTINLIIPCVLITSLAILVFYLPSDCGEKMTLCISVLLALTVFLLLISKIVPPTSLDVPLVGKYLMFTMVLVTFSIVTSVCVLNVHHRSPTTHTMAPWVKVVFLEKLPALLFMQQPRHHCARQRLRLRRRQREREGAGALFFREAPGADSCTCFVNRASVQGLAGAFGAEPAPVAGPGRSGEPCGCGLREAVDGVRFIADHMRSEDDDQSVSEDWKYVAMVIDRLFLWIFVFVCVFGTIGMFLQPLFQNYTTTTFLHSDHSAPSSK

Consider `CC(=O)OCC[N+](C)(C)C.[Cl-]` [Ach, acetylcholine chloride], for which, under setting [1], the “nH1 (high-affinity Hill coefficient)” value amounted to 0.51 and the “nH2 (low-affinity Hill coefficient)” value is reported as 3.0. For the same compound, where the note is “high-affinity sites”, the “times lower concentration of agonist for 50% of Ach evoked peak current amplitude, BMSC injected vs control oocytes” value is reported as 2.7 times. Further, the “times lower concentration of Ach for 50% of peak current, BMSC injected vs control oocytes” value (low affinity sites) came to 3.8 times. Moreover, for the setting “non-injected control oocytes”, the “nH1 (high-affinity Hill coefficient)” value stood at 0.68 and the “nH2 (low-affinity Hill coefficient)” value was 2.6.
